The results in this text go back to US11559538B2, “Substituted 1,2-oxaborolan-2-ols as PDE4 inhibitors” (Pfizer Inc., priority 2018, dated 2023).

SMILES strings stand for the structures. Read-outs that look alike come from different tables or passages of the source.

The target in assay [1] is PDE4B (aa 152-484, Uniprot ID Q07343) (Homo sapiens (Human), UniProt Q07343). Nature of the assay: PDE4 SPA assay (scintillation proximity assay). It is filed as biochemical. The following applies: read-out: PDE4B2 IC50. The essentials: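 PDE4B (aa 152-484, ~81.6 pM) preincubated ~10 min with compound, then 1 μM ³H/unlabeled cAMP added in Tris pH 7.5, 1.3 mM MgCl2, 0.004% Brij 35, ~2% DMSO; 30 min at RT. Product captured on SPA beads and counted; IC50 by four-parameter logistic fit.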
PDE4B (aa 152-484, Uniprot ID Q07343), sequence (Q07343 324-656): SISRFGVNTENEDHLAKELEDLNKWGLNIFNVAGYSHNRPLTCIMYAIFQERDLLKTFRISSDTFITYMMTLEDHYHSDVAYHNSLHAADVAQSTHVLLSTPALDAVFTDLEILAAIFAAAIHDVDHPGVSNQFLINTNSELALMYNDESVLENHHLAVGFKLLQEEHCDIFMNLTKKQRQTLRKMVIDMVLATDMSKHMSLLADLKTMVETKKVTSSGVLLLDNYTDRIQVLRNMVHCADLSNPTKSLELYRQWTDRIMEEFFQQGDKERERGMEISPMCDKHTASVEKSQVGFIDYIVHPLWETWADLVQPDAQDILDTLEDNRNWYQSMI
Background: Scintillation proximity formats need no separation of bound from free tracer.

The next assay deals with IL-4. Nature of the assay: Cytokine assay: IL-4 release from PHA-L stimulated human PBMCs. It is filed as cell-based. The following applies: read-out: IL4 IC50. The method in brief: (§1)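 PBMC thaw, ~250k cells/well; cpd pre-incubation ~10 min RT; PHA-L 3.5 μg/mL final; 48 h, 37° C, 5% CO2; supernatant HTRF; IC50 by 4-parameter logistic.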
Another assay deals with IL-13. Nature of the assay: Cytokine assay: IL-13 release from PHA-L stimulated human PBMCs. It is filed as cell-based. Conditions: read-out: IL13 IC50. The essentials:
as §1

Another assay deals with IFNγ. Nature of the assay: Cytokine assay: IFNγ release from PHA-L stimulated human PBMCs. It is filed as cell-based. The method in brief: as §1

By IC50 is commonly meant the point on the concentration scale where inhibition reaches its midpoint. Take `CCOc1nc(-c2cccc(C3=CB(O)OC3)c2)ccc1OC` [Example 120, 4-(3-(6-ethoxy-5-methoxypyridin-2-yl)phenyl)-1,2-oxaborol-2(5H)-ol]: the IC50 was 1.11 nM in assay [1]; 171 nM in the assay on IL-4 (Homo sapiens, PBMC); 2090 nM in the assay with IL-13 (Homo sapiens, PBMC); 7.85 nM in the assay on IFNγ (Homo sapiens, PBMC).
For the compound `CCOc1nc(-c2cccc(C3COB(O)C3)c2)ccc1OC` (stereo not drawn) [Example 121, 4-(3-(6-ethoxy-5-methoxypyridin-2-yl)phenyl)-1,2-oxaborolan-2-ol], the IC50 worked out at 0.69 nM in assay [1]; 57.4 nM in the assay on IL-4 (Homo sapiens, PBMC); 533 nM in the assay on IL-13 (Homo sapiens, PBMC); 1.5 nM in the assay on IFNγ (Homo sapiens, PBMC).
For the compound `CCCOc1cc(-c2nc(C3COB(O)C3)cc(C(F)(F)F)n2)ccc1OC` (stereo not drawn) [Example 124, 4-(2-(4-methoxy-3-propoxyphenyl)-6-(trifluoromethyl)pyrimidin-4-yl)-1,2-oxaborolan-2-ol], the IC50 was 2.2 nM in assay [1], 9.48 nM in the assay with IL-4, 1660 nM in the assay with IL-13 and 10.1 nM with IFNγ.
Take `COc1ccc(-c2cncc(C3COB(O)C3)n2)cc1OC1CCCC1` (stereo not drawn) [Example 125, 4-(6-(3-(cyclopentyloxy)-4-methoxyphenyl)pyrazin-2-yl)-1,2-oxaborolan-2-ol]: the IC50 in assay [1] stood at 1.7 nM; in the assay on IL-4 (Homo sapiens, PBMC), 11.3 nM; in the assay on IL-13 (Homo sapiens, PBMC), 577 nM; with IFNγ (Homo sapiens, PBMC), 2.43 nM.
On to `COc1ccc(-c2cccc(C3=CB(O)OC3)c2)cc1OC1CCCC1` [Example 129, 4-(3′-(cyclopentyloxy)-4′-methoxy-[1,1′-biphenyl]-3-yl)-1,2-oxaborol-2(5H)-ol], for which the IC50 in assay [1] is 4.04 nM; in the assay with IL-4 (Homo sapiens, PBMC), 34.5 nM; in the assay with IL-13 (Homo sapiens, PBMC) it was 3340 nM; in the assay on IFNγ (Homo sapiens, PBMC), 24.6 nM.
As to `COc1ccc(-c2cccc(C3COB(O)C3)c2)cc1OC1CCCC1` (stereo not drawn) [Example 130, 4-(3′-(cyclopentyloxy)-4′-methoxy-[1,1′-biphenyl]-3-yl)-1,2-oxaborolan-2-ol], the IC50 in assay [1] was 1.6 nM; with IL-4 (Homo sapiens, PBMC) it was 120 nM; in the assay on IL-13 (Homo sapiens, PBMC), 587 nM; in the assay on IFNγ (Homo sapiens, PBMC) it was 3.21 nM.
On to `COc1cc(C2COB(O)C2)nc(-c2ccc(OC)c(OC3CCCC3)c2)n1` (stereo not drawn) [Example 132, 4-(2-(3-(cyclopentyloxy)-4-methoxyphenyl)-6-methoxypyrimidin-4-yl)-1,2-oxaborolan-2-ol], for which the IC50 in assay [1] turned out to be 2.63 nM; with IL-4 (Homo sapiens, PBMC), 12.9 nM; with IL-13 (Homo sapiens, PBMC), 604 nM; with IFNγ (Homo sapiens, PBMC), 2.42 nM.
With `CCCOc1cc(-c2nc(CC(=O)O)cc(C3COB(O)C3)n2)ccc1OC` (stereo not drawn) [Example 134, 2-(6-(2-hydroxy-1,2-oxaborolan-4-yl)-2-(4-methoxy-3-propoxyphenyl)pyrimidin-4-yl)acetic acid], the IC50 was 7.46 nM in assay [1]; 1.79 nM in the assay on IL-4 (Homo sapiens, PBMC); 1110 nM in the assay with IL-13 (Homo sapiens, PBMC); 3.04 nM in the assay with IFNγ (Homo sapiens, PBMC).
Regarding `CCCOc1cc(-c2nc(C3COB(O)C3)ccc2F)ccc1OC` (stereo not drawn) [Example 135, 4-(5-fluoro-6-(4-methoxy-3-propoxyphenyl)pyridin-2-yl)-1,2-oxaborolan-2-ol], the IC50 in assay [1] turned out to be 10.3 nM; in the assay with IL-4 (Homo sapiens, PBMC), 15.3 nM; with IL-13 (Homo sapiens, PBMC), 668 nM; in the assay on IFNγ (Homo sapiens, PBMC) it was 7.24 nM.
In the case of `CCOc1cc(-c2cncc(C3COB(O)C3)c2C(F)F)ccc1OC` (stereo not drawn) [Example 138, 4-(4-(difluoromethyl)-5-(3-ethoxy-4-methoxyphenyl)pyridin-3-yl)-1,2-oxaborolan-2-ol], the IC50 in assay [1] is 2.04 nM; in the assay on IL-4 (Homo sapiens, PBMC), 1.08 nM; in the assay on IL-13 (Homo sapiens, PBMC), 988 nM; with IFNγ (Homo sapiens, PBMC), 0.9 nM.
For the compound `CCOc1cc(-c2cncc(C3COB(O)C3)c2C)c(F)cc1OC` (stereo not drawn) [Example 141, 4-(5-(5-ethoxy-2-fluoro-4-methoxyphenyl)-4-methylpyridin-3-yl)-1,2-oxaborolan-2-ol], the IC50 in assay [1] was 0.95 nM; with IL-4 (Homo sapiens, PBMC), 3.35 nM; in the assay on IL-13 (Homo sapiens, PBMC), 701 nM; in the assay on IFNγ (Homo sapiens, PBMC), 2.24 nM.
For `CCCOc1cccc(-c2cncc(C3COB(O)C3)c2)c1` (stereo not drawn) [Example 145, 4-(5-(3-propoxphenyl)pyridin-3-yl)-1,2-oxaborolan-2-ol], in that order: 6.77 nM, 103 nM, 2240 nM and 52.1 nM.
The matching figures for `CCCOc1cc(-c2nc(C3COB(O)C3)ns2)ccc1OC` (stereo not drawn) [Example 147, 4-(5-(4-methoxy-3-propoxyphenyl)-1,2,4-thiadiazol-3-yl)-1,2-oxaborolan-2-ol]: 0.44 nM, 2.69 nM, 1260 nM and 1.57 nM.
Consider `CCCOc1cc(-c2nc(C3COB(O)C3)ns2)ccc1OC` (stereo not drawn) [Example 148], for which the IC50 in assay [1] amounted to 0.24 nM; in the assay on IL-4, 4.92 nM; with IL-13, 759 nM; in the assay with IFNγ it was 1.68 nM.
For the compound `COc1ccc(-c2cncc(C3COB(O)C3)c2)cc1OC1CCCC1` (stereo not drawn) [Example 149, 4-(5-(3-(cyclopentyloxy)-4-methoxyphenyl)pyridin-3-yl)-1,2-oxaborolan-2-ol], the IC50 in assay [1] turned out to be 0.49 nM; with IL-4 (Homo sapiens, PBMC), 20.2 nM; in the assay with IL-13 (Homo sapiens, PBMC), 793 nM; in the assay with IFNγ (Homo sapiens, PBMC), 0.87 nM.
Take `CCOc1c(OC)ccc(-c2cccc(C3COB(O)C3)n2)c1C#N` (stereo not drawn) [Example 151, 2-ethoxy-6-(6-(2-hydroxy-1,2-oxaborolan-4-yl)pyridin-2-yl)-3-methoxybenzonitrile]: the IC50 turned out to be 5.98 nM in assay [1]; 39.1 nM in the assay on IL-4 (Homo sapiens, PBMC); 813 nM with IL-13 (Homo sapiens, PBMC); 3.48 nM with IFNγ (Homo sapiens, PBMC).
On to `COc1ccc(-c2cccc(C3COB(O)C3)c2)nc1OC` (stereo not drawn) [Example 152, 4-(3-(5,6-dimethoxypyridin-2-yl)phenyl)-1,2-oxaborolan-2-ol], for which the IC50 in assay [1] amounted to 1.38 nM; with IL-4 (Homo sapiens, PBMC), 161 nM; in the assay on IL-13 (Homo sapiens, PBMC), 828 nM; with IFNγ (Homo sapiens, PBMC), 6.02 nM.
`COc1ccc(-c2cncc(C3COB(O)C3)c2)c(C#N)c1OC` (stereo not drawn) [Example 153, 6-(5-(2-hydroxy-1,2-oxaborolan-4-yl)pyridin-3-yl)-2,3-dimethoxybenzonitrile]: the IC50 worked out at 3.24 nM in assay [1]; 50.7 nM in the assay on IL-4 (Homo sapiens, PBMC); 860 nM in the assay on IL-13 (Homo sapiens, PBMC); 2.57 nM in the assay with IFNγ (Homo sapiens, PBMC).
Regarding `CCCOc1nc(-c2cccc(C3=CB(O)OC3)c2)ccc1OC` [Example 155, 4-(3-(5-methoxy-6-propoxypyridin-2-yl)phenyl)-1,2-oxaborol-2(5H)-ol], the IC50 in assay [1] came out at 1.81 nM; in the assay on IL-4 (Homo sapiens, PBMC) it was 293 nM; in the assay on IL-13 (Homo sapiens, PBMC) it was 2600 nM; in the assay with IFNγ (Homo sapiens, PBMC) it was 5.64 nM.
For `CCCOc1nc(-c2cccc(C3COB(O)C3)c2)ccc1OC` (stereo not drawn) [Example 156, 4-(3-(5-methoxy-6-propoxypyridin-2-yl)phenyl)-1,2-oxaborolan-2-ol], in that order: 0.82 nM, 127 nM, 901 nM and 1.56 nM.
For `COc1cc(-c2ccc(OC)c(OC)c2)cc(C2COB(O)C2)c1` (stereo not drawn) [Example 157, 4-(3′,4′,5-trimethoxy-[1,1′-biphenyl]-3-yl)-1,2-oxaborolan-2-ol], in that order: 2.96 nM, 190 nM, 906 nM and 5.62 nM.
In the case of `CCCOc1cc(-c2cc(C)cc(C3COB(O)C3)n2)ccc1OC` (stereo not drawn) [Example 158, 4-(6-(4-methoxy-3-propoxyphenyl)-4-methylpyridin-2-yl)-1,2-oxaborolan-2-ol], the IC50 was 12 nM in assay [1]; 59.1 nM in the assay with IL-4 (Homo sapiens, PBMC); 929 nM in the assay on IL-13 (Homo sapiens, PBMC); 10.2 nM in the assay on IFNγ (Homo sapiens, PBMC).
In the case of `COc1ccc(-c2nc(C3COB(O)C3)cs2)cc1OC` (stereo not drawn) [Example 159, 4-(2-(3,4-dimethoxyphenyl)thiazol-4-yl)-1,2-oxaborolan-2-ol], the IC50 was 15.1 nM in assay [1]; 468 nM in the assay on IL-4 (Homo sapiens, PBMC); 931 nM in the assay on IL-13 (Homo sapiens, PBMC); 25.1 nM with IFNγ (Homo sapiens, PBMC).
For `COc1cc(-c2cccc(C3COB(O)C3)c2)cnc1OC` (stereo not drawn) [Example 161, 4-(3-(5,6-dimethoxypyridin-3-yl)phenyl)-1,2-oxaborolan-2-ol], in that order: 11.3 nM, 419 nM, 960 nM and 38.6 nM.
In the case of `COc1ccc(-c2cccc(C3COB(O)C3)n2)c(F)c1OC` (stereo not drawn) [Example 162, 4-(6-(2-fluoro-3,4-dimethoxyphenyl)pyridin-2-yl)-1,2-oxaborolan-2-ol], the IC50 is 14.5 nM in assay [1]; 56.3 nM in the assay on IL-4 (Homo sapiens, PBMC); 975 nM in the assay on IL-13 (Homo sapiens, PBMC); 8.29 nM in the assay with IFNγ (Homo sapiens, PBMC).
For `CCOc1c(OC)cc(F)c(-c2cncc(C3COB(O)C3)c2)c1F` (stereo not drawn) [Example 163, 4-(5-(3-ethoxy-2,6-difluoro-4-methoxyphenyl)pyridin-3-yl)-1,2-oxaborolan-2-ol], the IC50 was determined as 3.71 nM in assay [1]; 31.1 nM with IL-4 (Homo sapiens, PBMC); 2510 nM in the assay with IL-13 (Homo sapiens, PBMC); 14.2 nM in the assay on IFNγ (Homo sapiens, PBMC).
Turning to `COc1ccc(-c2cccc(C3COB(O)C3)c2)cc1OCC1CC1` (stereo not drawn) [Example 165, 4-(3′-(cyclopropylmethoxy)-4′-methoxy-[1,1′-biphenyl]-3-yl)-1,2-oxaborolan-2-ol], the IC50 in assay [1] stood at 2.11 nM; in the assay on IL-4 (Homo sapiens, PBMC) it was 128 nM; in the assay on IL-13 (Homo sapiens, PBMC), 990 nM; in the assay on IFNγ (Homo sapiens, PBMC), 3.25 nM.
